Data: the supplement of paper PMC8671470
± gives the standard deviation of the averaged measurements.

Assays:
Settings in all cases: 72 h
HEL [1] = assay: cell viability (% survival relative to DMSO control, bortezomib = 0%); higher = less cytotoxic
Summary of the method: (§1)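 After 72 h at 37 °C with 5% CO2, cell viability in 384-well plates was measured by CellTiter-Glo luminescence. The plates held compounds pre-printed at 1, 10, 100, 1000 or 10000 nM in duplicate, and cells from 10 AML and 5 CML lines seeded at densities titrated to linear growth. Percent survival is the duplicate mean, normalised to vehicle as 100% and a 10 µM positive control as 0%.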

K-562 [2] = assay: as above
Summary of the method: as §1

KG-1 [3] = assay: as above
Summary of the method: as §1

Mono-Mac-6 [4] = assay: as above
Summary of the method: as §1

MOLM-13 [5] = assay: as above
Summary of the method: as §1

KCL-22 [6] = assay: as above
Summary of the method: as §1

KU-812 [7] = assay: as above
Summary of the method: as §1

ML-2 [8] = assay: as above
Summary of the method: as §1

THP-1 [9] = assay: as above
Summary of the method: as §1

SHI-1 [10] = assay: as above
Summary of the method: as §1

BV-173 [11] = assay: as above
Summary of the method: as §1

HL-60 [12] = assay: as above
Summary of the method: as §1

HEL [13] = tested on: HEL
Summary of the method: (§2)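 For the IC50, dose–response curves were fitted with a log-logistic model. The data came from fifteen myeloid leukaemia cell lines grown in RPMI 1640 at densities in the linear growth range and incubated in 384-well plates for 72 h at 37 °C under 5% CO2. Doses were five tenfold steps from 1 to 10,000 nM in duplicate, and luminescent ATP viability was normalised to vehicle and to a positive control at 10 µM before four-parameter fitting.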

K-562 [14] = tested on: K-562
Summary of the method: as §2

KG-1 [15] = tested on: KG-1
Summary of the method: as §2

Mono-Mac-6 [16] = tested on: Mono-Mac-6
Summary of the method: as §2

MOLM-13 [17] = tested on: MOLM-13
Summary of the method: as §2

KCL-22 [18] = tested on: KCL-22
Summary of the method: as §2

KU-812 [19] = tested on: KU-812
Summary of the method: as §2

NOMO-1 = tested on: NOMO-1
Summary of the method: as §2

ML-2 [20] = tested on: ML-2
Summary of the method: as §2

THP-1 [21] = tested on: THP-1
Summary of the method: as §2

SHI-1 [22] = tested on: SHI-1
Summary of the method: as §2

BV-173 [23] = tested on: BV-173
Summary of the method: as §2

LAMA-84 = tested on: LAMA-84
Summary of the method: as §2

MV4-11 = tested on: MV4-11
Summary of the method: as §2

HL-60 [24] = tested on: HL-60
Summary of the method: as §2

HL-60 [25] = assay: cell viability (% survival relative to DMSO control); higher = less cytotoxic
Summary of the method: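 HL-60 cells in RPMI 1640 with 10% FBS were rescreened against the full library on 384-well plates at five tenfold concentrations, 1–10,000 nM, in duplicate. Each screen was run with DMSO or 100 nM of one of three metabolic inhibitors, for 72 h at 37 °C, 5% CO2. Viability was read by CellTiter-Glo and normalised to DMSO and 10 μM proteasome-inhibitor wells. Where given, area under the curve came from four-parameter log-logistic fits (drc, PharmacoGx).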

CCc1c(C(=O)C(N)=O)c2c(OCC(=O)O)cccc2n1Cc1ccccc1 [Varespladib]
cell viability [%]
Settings | 1 nM | 10 nM | 100 nM | 1000 nM | 10000 nM
BV-173 [11] | 90.6 | 104 | 85.4 | 99.3 | 88.7
HEL [1] | 94.8 | 111 | 99.2 | 109 | 87.6
HL-60 [12] | 98.8 | 101 | 92.8 | 96.2 | 93.2
K-562 [2] | 98.5 | 97.5 | 110 | 92.4 | 99.9
KCL-22 [6] | 91.2 | 107 | 105 | 102 | 96.5
KG-1 [3] | 99.5 | 96.9 | 99.4 | 95.9 | 94
KU-812 [7] | 96.1 | 97.7 | 98.5 | 97.6 | 86.4
ML-2 [8] | 105 | 105 | 109 | 104 | 89.7
MOLM-13 [5] | 80.7 | 95.3 | 85.8 | 101 | 118
Mono-Mac-6 [4] | 99.1 | 101 | 93.7 | 100 | 89
SHI-1 [10] | 106 | 99 | 106 | 92.9 | 93.4
THP-1 [9] | 103 | 105 | 100 | 97.4 | 96.9

Settings | IC50 (cell viability) [µM]
BV-173 [23] | > 10
HEL [13] | > 10
HL-60 [24] | > 10
K-562 [14] | > 10
KCL-22 [18] | > 10
KG-1 [15] | > 10
KU-812 [19] | > 10
LAMA-84 | > 10
ML-2 [20] | > 10
MOLM-13 [17] | > 10
MV4-11 | > 10
Mono-Mac-6 [16] | > 10
NOMO-1 | > 10
SHI-1 [22] | > 10
THP-1 [21] | > 10

cell viability [%], HL-60 [25]
Settings | 0.001 µM | 0.01 µM | 0.1 µM | 1 µM | 10 µM
co-treatment: AZD3965 100 nM | 97.7 ± 5.8 | 99.9 ± 7 | 102 ± 5.3 | 100.2 ± 0.46 | 97 ± 6.2
co-treatment: DMSO vehicle | 101 ± 3.8 | 95.7 ± 2.9 | 103 ± 8.2 | 97.5 ± 1.5 | 98.1 ± 5.8
co-treatment: GSK2194069 100 nM | 92.6 ± 6.1 | 93.5 ± 2.6 | 97 ± 3.3 | 92.9 ± 2.3 | 89.1 ± 4.8
co-treatment: pictilisib 100 nM | 103 ± 4.1 | 99.9 ± 18 | 107 ± 3.4 | 97.7 ± 1.4 | 97.2 ± 11

N#Cc1ccc(N(Cc2ccc(Br)cc2)n2cnnc2)cc1 [YM511]
cell viability [%]
Settings | 1 nM | 10 nM | 100 nM | 1000 nM | 10000 nM
BV-173 [11] | 92 | 95.3 | 101 | 107 | 100
HEL [1] | 113 | 104 | 97.7 | 118 | 104
HL-60 [12] | 104 | 76.2 | 102 | 117 | 101
K-562 [2] | 107 | 104 | 97 | 115 | 99.3
KCL-22 [6] | 111 | 97.9 | 106 | 102 | 99.6
KG-1 [3] | 99.3 | 105 | 90.2 | 118 | 92.1
KU-812 [7] | 95.9 | 99.6 | 89.3 | 102 | 92.7
ML-2 [8] | 105 | 108 | 106 | 107 | 98.5
MOLM-13 [5] | 131 | 99.5 | 91.6 | 105 | 94.5
Mono-Mac-6 [4] | 110 | 102 | 97 | 106 | 93.9
SHI-1 [10] | 117 | 103 | 95.7 | 103 | 102
THP-1 [9] | 99.3 | 103 | 93.4 | 105 | 91.9

Settings | IC50 (cell viability) [µM]
BV-173 [23] | > 10
HEL [13] | > 10
HL-60 [24] | > 10
K-562 [14] | > 10
KCL-22 [18] | > 10
KG-1 [15] | > 10
KU-812 [19] | > 10
LAMA-84 | > 10
ML-2 [20] | > 10
MOLM-13 [17] | > 10
MV4-11 | > 10
Mono-Mac-6 [16] | > 10
NOMO-1 | > 10
SHI-1 [22] | > 10
THP-1 [21] | > 10

cell viability [%], HL-60 [25]
Settings | 0.001 µM | 0.01 µM | 0.1 µM | 1 µM | 10 µM
co-treatment: AZD3965 100 nM | 83.2 ± 8.3 | 106 ± 6.3 | 102 ± 2 | 95.3 ± 5.1 | 96.88 ± 0.89
co-treatment: DMSO vehicle | 96.8 ± 4 | 102 ± 4.8 | 101.39 ± 0.056 | 101 ± 2.3 | 104 ± 4.4
co-treatment: GSK2194069 100 nM | 96.8 ± 2 | 81 ± 33 | 105 ± 5.9 | 97.49 ± 0.82 | 102 ± 2.3
co-treatment: pictilisib 100 nM | 88.1 ± 9.3 | 79.9 ± 18 | 99.6 ± 1.7 | 92.9 ± 4.6 | 95.3 ± 5.3

N#C/C(=C\c1ccc(O)cc1)C(=O)O [alpha-cyano-4-hydroxycinnamic acid]
cell viability [%]
Settings | 1 nM | 10 nM | 100 nM | 1000 nM | 10000 nM
BV-173 [11] | 96.5 | 103 | 84.2 | 80.1 | 113
HEL [1] | 99.3 | 114 | 118 | 113 | 116
HL-60 [12] | 79.6 | 78.6 | 113 | 99.5 | 83.1
K-562 [2] | 101 | 72.2 | 95.4 | 103 | 91
KCL-22 [6] | 98.3 | 97.6 | 103 | 94 | 92
KG-1 [3] | 101 | 96.7 | 103 | 99.2 | 103
KU-812 [7] | 97.9 | 114 | 89.3 | 87.4 | 105
ML-2 [8] | 92.4 | 101 | 96.2 | 95.8 | 94.5
MOLM-13 [5] | 97.7 | 99.7 | 104 | 99.1 | 85.2
Mono-Mac-6 [4] | 98.2 | 101 | 103 | 103 | 104
SHI-1 [10] | 99.9 | 97 | 95.1 | 97.3 | 86.6
THP-1 [9] | 95.5 | 98.3 | 98.3 | 87.5 | 93.2

Settings | IC50 (cell viability) [µM]
BV-173 [23] | > 10
HEL [13] | > 10
HL-60 [24] | > 10
K-562 [14] | > 10
KCL-22 [18] | > 10
KG-1 [15] | > 10
KU-812 [19] | > 10
LAMA-84 | > 10
ML-2 [20] | > 10
MOLM-13 [17] | > 10
MV4-11 | > 10
Mono-Mac-6 [16] | > 10
NOMO-1 | > 10
SHI-1 [22] | > 10
THP-1 [21] | > 10

cell viability [%], HL-60 [25]
Settings | 0.001 µM | 0.01 µM | 0.1 µM | 1 µM | 10 µM
co-treatment: AZD3965 100 nM | 99.4 ± 2.6 | 101 ± 2 | 102.35 ± 0.098 | 101 ± 4.6 | 101 ± 1.7
co-treatment: DMSO vehicle | 98.9 ± 6.6 | 98.8 ± 2.9 | 95.79 ± 0.61 | 99.8 ± 2.5 | 98.6 ± 2
co-treatment: GSK2194069 100 nM | 101 ± 11 | 103 ± 2.3 | 98.6 ± 4.6 | 97.5 ± 6.4 | 95.5 ± 2
co-treatment: pictilisib 100 nM | 90.3 ± 2.3 | 99.16 ± 0.25 | 95.5 ± 3 | 94.7 ± 5.4 | 91.3 ± 5.2
